From US20190280220A1, “METAL COMPLEXES” (Merck Patent GmbH, priority 2016, published 2019)

Test: Comparison of solubility in organic solvents at room temperature
Assay type: physicochemical
From the text: The compounds of the invention have very good solubility in nonpolar solvents (aromatics, alkylaromatics, cyclohexane) and dipolar aprotic solvents (ketones, ethers, esters, amides, sulfones, sulfoxides etc., such as acetone, butanone, cyclohexanone, di-n-butyl ether, THF, dioxane, 3-phenoxytoluene, anisole, ethyl acetate, butyl acetate, hexyl acetate, methyl benzoate, DMF, DMAC, NMP, DMSO, dimethyl sulfone, sulfolane, etc.) and mixtures thereof, and form solutions that are stable for a long period of time. Preferred concentrations are 5-500 mg/ml, more preferably 20-200 mg/ml.

Structure (SMILES)	Solubility, 3-Phenoxytoluene [mg/mL]	Solubility, DMF [mg/mL]	Solubility, Cyclohexane [mg/mL]	Solubility, n-Butyl benzoate [mg/mL]	Solubility, Toluene [mg/mL]
c1ccc(-c2c(-c3ccccc3)c(-c3ccccc3)c(-c3cc[c]([Ir]([c]4ccc(-c5c(-c6ccccc6)c(-c6ccccc6)c(-c6ccccc6)c(-c6ccccc6)c5-c5ccccc5)cc4-c4ccccn4)[c]4ccc(-c5c(-c6ccccc6)c(-c6ccccc6)c(-c6ccccc6)c(-c6ccccc6)c5-c5ccccc5)cc4-c4ccccn4)c(-c4ccccn4)c3)c(-c3ccccc3)c2-c2ccccc2)cc1 [Ir(500)]	>150	>70	>5	>80	>100
c1ccc(-c2c(-c3ccccc3)c(-c3ccccc3)c(-c3ccc(-c4cc(-c5ccccn5)[c]5cc4-c4ccccc4-c4cc6cc(c4)-c4ccccc4-c4c[c](c(-c7ccccn7)cc4-c4ccc(-c7c(-c8ccccc8)c(-c8ccccc8)c(-c8ccccc8)c(-c8ccccc8)c7-c7ccccc7)cc4)[Ir]5[c]4cc(c(-c5ccc(-c7c(-c8ccccc8)c(-c8ccccc8)c(-c8ccccc8)c(-c8ccccc8)c7-c7ccccc7)cc5)cc4-c4ccccn4)-c4ccccc4-6)cc3)c(-c3ccccc3)c2-c2ccccc2)cc1 [Ir(530)]	>150	>70	>5	>80	>100
